The results in this text go back to patent US5449676A, “Pyridazines” (priority 1991, dated 1995).

Assay [1] has as its system PDE IV. In words: inhibition of PDE IV isolated from human polymorphonuclear neutrophilic cells (PMNs). The assay is classed as biochemical. The conditions noted are these: for PDE IV hum. PMNs -lg[IC50 ]: negative logarithm of IC50, cAMP 0.5 μmol/l; for [IC50 ] PDE III/[IC50 ] PDE IV PMNs: selectivity ratio, PDE III hum. platelets vs PDE IV hum. PMNs. The source says:
(§1) The specific inhibition of phosphodiesterase IV (PDE IV=high-affinity cAMP-PDE which cannot be inhibited by cGMP, rolipram-sensitive) is regarded as particularly indicative of an expected bronchospasmolytic and/or antiinflammatory effect. The specificity of the inhibition is moreover described by the ratio [IC50 ]PDE-III /[IC50 ]PDE-IV (PDE III=high-affinity cAMP-PDE which can be inhibited by cGMP) [H. Hidaka et al., Adv. Cycl. Nucl. Res. 13, 145 (1984); TiPS 5, 237 (1984); R. Weishaar et al., J. Med. Chem. 28, (1985); S. A. Harrison et al., Molec. Pharmac. 29, 506 (1986); J. Klein-Tebbe et al., Allergologie 12, 12 (1989); C. Schudt et al., Allergologie 12, 12, (1989); C. Schudt et al., Agents and Action 1991 in press; C. D. Nicholson et al., TiPS 12, (1), 19 (1991)].
(§2) For this reason, the PDE inhibition by the compounds according to the invention was determined on a PDE III isolated from human platelets and on PDE IV isolated from human polymorphonuclear neutrophilic cells (PMNs) and from the dog trachea. Phosphodiesterases III and IV are isolated by chromatography as described by Polson et al., Biochem. Pharmacol. 31, 3403-3406 (1982).
(§3) The substances are dissolved and diluted further in DMSO. 2.1 μl samples from a series of solutions diluted up to 100 fold are mixed with 212 μl of reaction mixture. The reaction mixture contains Hepes (100 mmol/l), DTE (5 mmol/l), MgCl2 (5 mmol/l), CaCl2 (10 μmol/l), BSA fraction V 0.5 mg, ml, cAMP 0.5 μmol/l, 2,8-^3 H-cAMP 250,000 cpm/ml (0.3 μCi/ml, S.A. […]), SV (snake venom) 25 μg/212 μl of test mixture.

Assay [2] deals with T1, PDE III (Homo sapiens, UniProt Q14432).
T1 construct: PDE III isolated from human platelets; from tissue; host or cells: human platelets
T1 sequence (Q14432 whole entry): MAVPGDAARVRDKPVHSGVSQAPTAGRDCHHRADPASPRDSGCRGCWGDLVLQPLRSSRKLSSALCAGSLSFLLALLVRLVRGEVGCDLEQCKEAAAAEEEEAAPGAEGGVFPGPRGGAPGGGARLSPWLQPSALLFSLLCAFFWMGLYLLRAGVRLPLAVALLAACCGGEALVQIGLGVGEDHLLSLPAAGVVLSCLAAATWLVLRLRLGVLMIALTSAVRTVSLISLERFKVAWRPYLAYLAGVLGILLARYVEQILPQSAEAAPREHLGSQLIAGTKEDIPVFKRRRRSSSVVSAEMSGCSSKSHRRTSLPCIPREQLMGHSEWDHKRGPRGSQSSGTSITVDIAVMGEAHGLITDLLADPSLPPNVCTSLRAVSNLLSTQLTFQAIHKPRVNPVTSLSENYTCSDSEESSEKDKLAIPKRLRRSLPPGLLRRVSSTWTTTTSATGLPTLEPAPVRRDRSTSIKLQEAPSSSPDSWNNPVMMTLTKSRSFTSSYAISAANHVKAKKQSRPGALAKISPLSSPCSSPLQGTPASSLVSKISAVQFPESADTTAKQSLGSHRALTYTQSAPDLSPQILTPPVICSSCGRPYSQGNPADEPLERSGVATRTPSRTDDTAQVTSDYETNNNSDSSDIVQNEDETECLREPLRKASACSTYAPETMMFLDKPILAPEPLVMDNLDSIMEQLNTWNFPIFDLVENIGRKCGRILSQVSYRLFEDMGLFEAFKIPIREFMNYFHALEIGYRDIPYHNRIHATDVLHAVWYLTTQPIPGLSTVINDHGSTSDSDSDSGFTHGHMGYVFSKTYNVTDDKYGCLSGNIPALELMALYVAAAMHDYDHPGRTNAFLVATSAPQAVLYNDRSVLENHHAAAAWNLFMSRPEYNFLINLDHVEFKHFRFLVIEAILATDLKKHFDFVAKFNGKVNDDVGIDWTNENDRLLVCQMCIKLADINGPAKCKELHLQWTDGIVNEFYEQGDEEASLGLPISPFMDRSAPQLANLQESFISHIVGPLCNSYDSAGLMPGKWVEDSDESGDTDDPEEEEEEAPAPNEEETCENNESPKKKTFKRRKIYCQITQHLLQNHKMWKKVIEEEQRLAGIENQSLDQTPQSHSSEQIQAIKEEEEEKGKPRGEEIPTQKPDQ
Kind of assay: inhibition of PDE III isolated from human platelets. The conditions noted are these: negative logarithm of IC50, cAMP 0.5 μmol/l; for IC50: read-out: PDE III hum. platelets -lg[IC50 ] (converted). The assay is classed as biochemical.
Source text: as §1, §2, §3

Assay [3] concerns acetylcholine-induced bronchospasm. In words: protective effect against acetylcholine-induced bronchospasm in conscious guinea pigs. The conditions noted are these: oral, 30 minutes after administration, percentage of protected animals. The assay is classed as in vivo. The procedure:
In addition, the bronchospasmolytic effect was tested on the "protective effect against acetylcholine-induced bronchospasm in conscious guinea pigs" model:
Guinea pigs (250-350 g) are exposed in a closed Plexiglass cylinder (volume […] ) to an acetylcholine mist (0.06% in 0.9% sodium chloride solution; Heyer Use 77 ultrasonic atomizer) before administration of the substance and twice at an interval of 20 minutes after administration of the substance. The time from the start of atomization to the onset of marked breathing difficulties (in some cases hypoxic convulsion in the lateral position) is measured and called the latency time. An increase in the latency time after administration of the substance to at least three times the average latency time before administration of the substance is regarded as a protective effect, and the number of protected animals in the group is determined. […]
[…] After 30 minutes, the animals are again exposed to the acetylcholine mist and the latency times are measured. An increase in the latency time to at least three times the length is regarded as a protective effect.

Assay [4] deals with histamine-induced bronchospasm. Kind of assay: histamine-induced bronchospasm in anesthetized guinea pigs. It is filed as in vivo. The note with it: 20 μmol/kg; for inhibition in vivo at 20 µmol/kg: Cavia porcellus, iv. The procedure: One histamine spasm before administration of the substance was compared with several histamine spasms after administration of the substance. The test substances were administered intravenously (i.v.) and/or intrajejunally (i.j.).

For assay [5], the system named is PDE IV. Kind of assay: inhibition of PDE IV isolated from dog trachea. It is filed as biochemical. The note with it: for PDE IV dog trachea -lg[IC50 ]: negative logarithm of IC50, cAMP 0.5 μmol/l; for [IC50 ] PDE III/[IC50 ] PDE IV dog tr.: selectivity ratio, PDE III hum. platelets vs PDE IV dog trachea.
Source text: as §1, §2, §3

Assay [6] deals with tracheal rings. In words: bronchospasmolytic effect on the chain of tracheal rings from guinea pigs in vitro. The note with it: for EC50: Cavia porcellus, negative logarithm of EC50 mol/l, 50% of maximum achievable relaxation, read-out: -lg[EC50 ] (converted); for [EC50 ] theophylline/[EC50 ] substance: ratio of EC50 values, theophylline vs substance. The assay is classed as cell-based. The method, then:
The bronchospasmolytic effect of the compounds on the chain of tracheal rings from guinea pigs was tested in vitro as follows:
Thus, a complete dose-effect plot for the test substance is obtained over a period of 20 to 30 minutes. The particular relaxation is expressed as a percentage fraction of the maximum relaxation achievable by administration of (-)isoprenaline (10^-6 mol/l).

Where [7] appears, read: after 1 h, read-out: % inhibition after 1 h of the histamine-induced decrease in Vmax.
[8] abbreviates: average 0-1 h after administration, read-out: % inhibition (0-1 h) of the histamine-induced decrease in Vmax.

Read-outs that look alike come from different tables or passages of the source. Bounds are passed on as bounds.

In the case of “3-amino-6-(3-cyclopentyloxy-4methoxyphenyl)pyridazine [Serial No. 6]”, in assay [1], the “PDE IV hum. PMNs -lg[IC50 ]” value stood at 6.18 and the “[IC50 ] PDE III/[IC50 ] PDE IV PMNs” value is above 151. Also, the “PDE III hum. platelets -lg[IC50 ]” value in assay [2] is given as below 4.0. Besides, the “% protective effect” value in assay [3] (30 μmol/kg) was determined as 50%. Moreover, in assay [3] (100 μmol/kg), the “% protective effect” value came to 70%. The “% protective effect” value in assay [3] (300 μmol/kg) was 80%. Moreover, the “% inhibition after 1 h of the histamine-induced decrease in Vmax” value in assay [4] (i.v., after 1 h) came to 20%. Besides, in assay [4] (i.v., average 0-1 h after administration), the “% inhibition (0-1 h) of the histamine-induced decrease in Vmax” value turned out to be 34%. For the same molecule, in assay [5], the “PDE IV dog trachea -lg[IC50 ]” value turned out to be 6.48 and the “[IC50 ] PDE III/[IC50 ] PDE IV dog tr.” value is reported as above 304.
With `CCOc1cc(-c2ccc(N)[n+]([O-])n2)ccc1OC(F)F` [compound 19], in assay [1], the “PDE IV hum. PMNs -lg[IC50 ]” value amounted to 6.58 and the “[IC50 ] PDE III/[IC50 ] PDE IV PMNs” value is 240. Also, the IC50 in assay [2] was 63.1 µM. The responders at 4 µmol/kg in assay [3] (Cavia porcellus, 0.5 h, 4 μmol/kg) worked out at 50%. The inhibition in vivo at 20 µmol/kg in assay [4] (setting [7]) amounted to 81%. In addition, the inhibition in vivo at 20 µmol/kg in assay [4] (setting [8]) stood at 71%. Besides, in assay [5], the “PDE IV dog trachea -lg[IC50 ]” value was found to be 5.82 and the “[IC50 ] PDE III/[IC50 ] PDE IV dog tr.” value is on record as 41.7. Besides, in assay [6], the EC50 is 0.151 µM and the “[EC50 ] theophylline/[EC50 ] substance” value was 893.
`COc1cc(-c2ccc(N)[n+]([O-])n2)ccc1OC(F)F` [compound 20]: in assay [1], the “PDE IV hum. PMNs -lg[IC50 ]” value was found to be 5.89 and the “[IC50 ] PDE III/[IC50 ] PDE IV PMNs” value is recorded as 11.5. For the same molecule, the IC50 in assay [2] was 14.8 µM. The molecule also displayed a responders at 2 µmol/kg in assay [3] (Cavia porcellus, 0.5 h, 2 μmol/kg) of 50%. In assay [4] (setting [7]), the inhibition in vivo at 20 µmol/kg came out at 48%. For the same molecule, in assay [4] (setting [8]), the inhibition in vivo at 20 µmol/kg was found to be 40%. Further, in assay [5], the “PDE IV dog trachea -lg[IC50 ]” value is reported as 5.08 and the “[IC50 ] PDE III/[IC50 ] PDE IV dog tr.” value was 1.8. For the same molecule, in assay [6], the EC50 is 0.447 µM and the “[EC50 ] theophylline/[EC50 ] substance” value is reported as 302.

For orientation: IC50 means the point on the concentration scale where inhibition reaches its midpoint. A word on the EC50: it is the concentration at which the effect is half-maximal.
